Assay results: patent publication US20260285850A1, “SUBSTITUTED OXAZOLIDINONES AND IMIDAZOLINONES AS HERBICIDES” (FMC CORPORATION, priority 2023, published 2026)

Columns and labels:
Type in all cases: in vivo
[1] = system: ducksalad (Heteranthera limosa); experiment: Test B flooded paddy test, visual plant response rating 0-100; details: 250 g ai/ha, Flood, applied to paddy water, evaluated after 13 days
Procedure, shortened: (§1)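 Visual evaluation after 13 days. Water-applied treatment, 3 cm flood depth held constant, plants at 2-leaf stage at treatment.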

[2] = system: sedge, umbrella (small-flower umbrella sedge, Cyperus difformis); experiment: as above; details: 250 g ai/ha, Flood, applied to paddy water, evaluated after 13 days
Procedure, shortened: as §1

[3] = system: rice (Oryza sativa); experiment: as above; details: 250 g ai/ha, Flood, applied to paddy water, evaluated after 13 days
Procedure, shortened: as §1

[4] = system: barnyardgrass (Echinochloa crusgalli); experiment: as above; details: 250 g ai/ha, Flood, applied to paddy water, evaluated after 13 days
Procedure, shortened: as §1

[5] = system: green foxtail (Setaria viridis); experiment: Test A preemergence soil spray, visual injury rating 0-100; details: 10 days, 0 = no effect, 100 = complete control
Procedure, shortened: (§2)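 Seeds sown in loam-sand blend got a preemergence directed soil spray, or emerged plants (2-10 cm, one- to two-leaf) got a postemergence spray, of compound in non-phytotoxic solvent with surfactant. After 10 days in greenhouse, injury rated visually versus untreated controls on a 0 (no effect) to 100 (complete control) scale.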

[6] = system: ragweed (common ragweed, Ambrosia artemisiifolia); experiment: as above; details: 10 days, 0 = no effect, 100 = complete control
Procedure, shortened: as §2

[7] = system: blackgrass (Alopecurus myosuroides); experiment: as above; details: 10 days, 0 = no effect, 100 = complete control
Procedure, shortened: as §2

[8] = system: kochia (Bassia scoparia); experiment: as above; details: 10 days, 0 = no effect, 100 = complete control
Procedure, shortened: as §2

[9] = system: barnyardgrass (Echinochloa crus-galli); experiment: as above; details: 10 days, 0 = no effect, 100 = complete control
Procedure, shortened: as §2

[10] = system: soybean (Glycine max); experiment: as above; details: 10 days, 0 = no effect, 100 = complete control
Procedure, shortened: as §2

[11] = system: oat, wild (wild oat, Avena fatua); experiment: as above; details: 10 days, 0 = no effect, 100 = complete control
Procedure, shortened: as §2

[12] = system: corn (Zea mays); experiment: as above; details: 10 days, 0 = no effect, 100 = complete control
Procedure, shortened: as §2

[13] = system: wheat (Triticum aestivum); experiment: as above; details: 10 days, 0 = no effect, 100 = complete control
Procedure, shortened: as §2

[14] = system: palmer (palmer amaranth, palmer pigweed, Amaranthus palmeri); experiment: as above; details: 10 days, 0 = no effect, 100 = complete control
Procedure, shortened: as §2

[15] = system: green foxtail (Setaria viridis); experiment: Test A postemergence application, visual injury rating 0-100; details: 10 days
Procedure, shortened: as §2

[16] = system: ragweed (common ragweed, Ambrosia artemisiifolia); experiment: as above; details: 10 days
Procedure, shortened: as §2

[17] = system: blackgrass (Alopecurus myosuroides); experiment: as above; details: 10 days
Procedure, shortened: as §2

[18] = system: kochia (Bassia scoparia); experiment: as above; details: 10 days
Procedure, shortened: as §2

[19] = system: barnyardgrass (Echinochloa crus-galli); experiment: as above; details: 10 days
Procedure, shortened: as §2

[20] = system: soybean (Glycine max); experiment: as above; details: 10 days
Procedure, shortened: as §2

[21] = system: oat, wild (wild oat, Avena fatua); experiment: as above; details: 10 days
Procedure, shortened: as §2

[22] = system: galium (catchweed bedstraw, Galium aparine); experiment: as above; details: 10 days
Procedure, shortened: as §2

[23] = system: corn (Zea mays); experiment: as above; details: 10 days
Procedure, shortened: as §2

[24] = system: ryegrass, Italian (italian ryegrass, Lolium multiflorum); experiment: as above; details: 10 days
Procedure, shortened: as §2

[25] = system: wheat (Triticum aestivum); experiment: as above; details: 10 days
Procedure, shortened: as §2

[26] = system: horseweed (Erigeron canadensis); experiment: as above; details: 10 days
Procedure, shortened: as §2

[27] = system: palmer (palmer amaranth, palmer pigweed, Amaranthus palmeri); experiment: as above; details: 10 days
Procedure, shortened: as §2

[28] = 31 g ai/ha, postemergence, 0 = no effect, 100 = complete control
[29] = Postemergence, 125 g ai/ha, 0 is no effect, 100 is complete control

## CC1(C(=O)NC2C=CC(C(=O)O)C2)CN(c2cc(F)cc(Cl)c2)C(=O)O1 (centres unmarked) [Compound 6]
[1]
  Plant response rating, Ducksalad (0 to 100 scale, 0 is no effect and 100 is complete control): 95
[2]
  Plant response rating, Sedge, Umbrella (0 to 100 scale, 0 is no effect and 100 is complete control): 95
[3]
  Plant response rating, Rice (0 to 100 scale, 0 is no effect and 100 is complete control): 35
[4]
  Plant response rating, Barnyardgrass (0 to 100 scale, 0 is no effect and 100 is complete control): 70
[5]; 31 g ai/ha
  Foxtail, Green plant response rating (0-100): 50
[5]; 125 g ai/ha
  Foxtail, Green plant response rating (0 to 100 scale): 100
[6]; 31 g ai/ha
  Ragweed plant response rating (0-100): 0
[6]; 125 g ai/ha
  Ragweed plant response rating (0 to 100 scale): 40
[7]; 31 g ai/ha
  Blackgrass plant response rating (0-100): 30
[7]; 125 g ai/ha
  Blackgrass plant response rating (0 to 100 scale): 60
[8]; 31 g ai/ha
  Kochia plant response rating (0-100): 100
[8]; 125 g ai/ha
  Kochia plant response rating (0 to 100 scale): 100
[9]; 31 g ai/ha
  Barnyardgrass plant response rating (0-100): 20
[9]; 125 g ai/ha
  Barnyardgrass plant response rating (0 to 100 scale): 100
[10]; 31 g ai/ha
  Soybean plant response rating (0-100): 50
[10]; 125 g ai/ha
  Soybean plant response rating (0 to 100 scale): 80
[11]; 31 g ai/ha
  Oat, Wild plant response rating (0-100): 30
[11]; 125 g ai/ha
  Oat, Wild plant response rating (0 to 100 scale): 90
[12]; 31 g ai/ha
  Corn plant response rating (0-100): 30
[12]; 125 g ai/ha
  Corn plant response rating (0 to 100 scale): 90
[13]; 31 g ai/ha
  Wheat plant response rating (0-100): 50
[13]; 125 g ai/ha
  Wheat plant response rating (0 to 100 scale): 90
[14]; 31 g ai/ha
  Amaranth, Palmer plant response rating (0-100): 60
[14]; 125 g ai/ha
  Amaranth, Palmer plant response rating (0 to 100 scale): 90
[15]; [28]
  Foxtail, Green plant response rating (0-100): 90
[15]; [29]
  Foxtail, Green plant response rating (0 to 100 scale): 90
[16]; [28]
  Ragweed plant response rating (0-100): 60
[16]; [29]
  Ragweed plant response rating (0 to 100 scale): 80
[17]; [28]
  Blackgrass plant response rating (0-100): 80
[17]; [29]
  Blackgrass plant response rating (0 to 100 scale): 90
[18]; [28]
  Kochia plant response rating (0-100): 80
[18]; [29]
  Kochia plant response rating (0 to 100 scale): 80
[19]; [28]
  Barnyardgrass plant response rating (0-100): 100
[19]; [29]
  Barnyardgrass plant response rating (0 to 100 scale): 100
[20]; [28]
  Soybean plant response rating (0-100): 80
[20]; [29]
  Soybean plant response rating (0 to 100 scale): 80
[21]; [28]
  Oat, Wild plant response rating (0-100): 90
[21]; [29]
  Oat, Wild plant response rating (0 to 100 scale): 100
[22]; [28]
  Galium plant response rating (0-100): 80
[22]; [29]
  Galium plant response rating (0 to 100 scale): 80
[23]; [28]
  Corn plant response rating (0-100): 100
[23]; [29]
  Corn plant response rating (0 to 100 scale): 100
[24]; [28]
  Ryegrass, Italian plant response rating (0-100): 80
[24]; [29]
  Ryegrass, Italian plant response rating (0 to 100 scale): 90
[25]; [28]
  Wheat plant response rating (0-100): 90
[25]; [29]
  Wheat plant response rating (0 to 100 scale): 90
[26]; [28]
  Horseweed plant response rating (0-100): 40
[26]; [29]
  Horseweed plant response rating (0 to 100 scale): 90
[27]; [28]
  Amaranth, Palmer plant response rating (0-100): 90
[27]; [29]
  Amaranth, Palmer / Pigweed, Palmer plant response rating (0 to 100 scale): 90
